From patent publication US20240217932A1, “PYRIDIUM ESTERS” (The Procter & Gamble Company, priority 2022, published 2024)

Columns and labels:
staphylococcus aureus = assay: Surface Antimicrobial Kill Testing Method, activity normalized to triclosan internal standard (Gram positive); assay type: cell-based
Description: (§1) Inoculum is prepared by streaking microorganism onto a Tryptic Soy Agar (TSA) plate and incubating for 24 h at 33° C. Plated bacteria is resuspended in saline until the transmittance percentage falls within the accepted range for ˜10^8 cfu/mL. For K. pneumonia (Kp) and P. aeruginosa (Pa), this is 31.00-33.00% T. For S. aureus (Sa) this is 23.00-25.00% T. A 10× concentration is made by spinning down the prepared inoculum, removing the supernatant saline from the bacterial pellet, then resuspending the pellet in 1/10th of the original volume of saline. The final inoculum is prepared with 5% of “soil” in the form of Fetal Bovine Serum (FBS).
(§2) A 18×18 mm sterile glass coverslip is placed into an appropriate container (e.g. petri dish). 20 μL of prepared inoculum is added to the glass coverslip. Inoculum is then air-dried for 30 minutes in a 36° C. incubator. After drying, 40 μL of test sample is added on top of the dried inoculum. This is incubated at room temperature for the desired contact time. 5 mL of neutralizing media (Modified Letheen Broth+Tween+Lecithin (MLBTL)) is added to the coverslip and shaken on an orbital shaker for 5 minutes to ensure proper neutralization and extraction. Viability is then assessed of the neutralized and extracted sample by traditional/alternative microbiological techniques.
(§3) The normalized antimicrobial activity reported in the performance examples below was generated from detection time data obtained as described in the Surface Antimicrobial Kill Test Method. To account for day-to-day variability an internal standard was tested with each series. The internal standard was a composition of 0.25 wt % Triclosan, Sigma Aldrich (St. Louis, MO, USA; CAS #3380-34-5, 97.0-103.0% (active substance, GC)), 50 wt % DMSO, and 49.75 wt % H2O, with a final solution pH of 7.7. Normalized activity is reported following the equation 1 below.
(§4) Normalized Activity=(αΔDT-βΔDT)/(γΔDT-βΔDT) equation 1.
(§5) where, αΔDT is the average detection time of the antimicrobial compound, and γΔDT is the average detection time of the reference triclosan internal standard, and βΔDT is the average detection time of the background unperturbed bacteria.
(§6) Pyridinium esters of the present disclosure were tested as aqueous solutions in the Surface Antimicrobial Kill Testing Method above. To prepare test solutions pyridinium esters were first dissolved in the appropriate solvent. Second the selected surfactant is added to the mixture. After vortex (1 min, Vortex-2 Genie, vortex speed 8) mixing, the samples were then diluted with ½ portion of reverse osmosis water (RO water, Millipore Direct-Q™, pH 6). The aqueous solution was then vortexed (1 min, Vortex-2 Genie, vortex speed 8), to which the second ½ portion of water is added. The pH of the solution was then adjusted to the target pH using either 1N HCl, Glacial Acetic Acid, or 1N NaOH. The final solution was then vortexed (1 min, Vortex-2 Genic, vortex speed 8). An example batch sheet is provided below in Table 1.
(§7) In Performance Examples 1-4 below, formulations comprising solvent, surfactant, and pyridinium esters according to the present disclosure (e.g., based on hexyl 3-(alkylpyridinium)acrylate halides), are evaluated via microbial surface kill tests according to the Surface Antimicrobial Kill Testing Method provided above. After treatment, microbial growth is referenced and reported to a triclosan sample and unaltered microbes according to the Normalization of Antimicrobial Activity provided above.

[1] = Stability of the isolated solid by 1H NMR; assay type: physicochemical
Gram Negative bacteria = assay: Surface Antimicrobial Kill Testing Method, activity normalized to triclosan internal standard (Gram negative); assay type: cell-based; details: water, pH 7
Description: as §1, §2, §3, §4, §5, §6, §7

[2] = 0.5 wt % compound, 3 wt % DEGBE, 1 wt % EcoSurf EH-9, 95.5 wt % reverse osmosis water, pH 7

CCCCCCOC(=O)/C=C/c1cccnc1 [Synthetic Example 1, hexyl 3-(3-pyridyl)acrylate]
Gram Positive Referenced Microbial Activity (staphylococcus aureus; [2]): 0.11

CCCCCCOC(=O)/C=C/c1ccc[n+](C)c1.[I-] [Synthetic Example 3, hexyl 3-(3-methylpyridinium)acrylate iodide]
Gram Positive Referenced Microbial Activity (staphylococcus aureus; [2]): 0.21 | Stability of the independent solid by 1H NMR [1]: stable for several months

CCCCCCOC(=O)/C=C/c1cc[n+](C)cc1.[I-] [Synthetic Example 4, hexyl 3-(4-methylpyridinium)acrylate iodide]
Gram Positive Referenced Microbial Activity (staphylococcus aureus; [2]): 1.2 | Stability of the independent solid by 1H NMR [1]: stable for several months

CCCCCCOC(=O)/C=C/c1ccc[n+](CCCCCC)c1.[Br-] [Synthetic Example 5, hexyl 3-(3-hexylpyridinium)acrylate bromide]
Gram Positive Referenced Microbial Activity (staphylococcus aureus; 0.063 wt % Synthetic Example 5, 1 wt % EcoSurf EH9, 3 wt % DEGBE, water, pH 7): 0.55 | Gram Positive Referenced Microbial Activity (staphylococcus aureus; 0.125 wt % Synthetic Example 5, 1 wt % EcoSurf EH9, 3 wt % DEGBE, water, pH 7): 0.93 | Gram Positive Referenced Microbial Activity (staphylococcus aureus; 0.25 % Synthetic Example 5, 1 wt % Crodasinic LS30, 3 wt % DEGBE, water, pH 7): 0.42 | Gram Positive Referenced Microbial Activity (staphylococcus aureus; 0.25 % Synthetic Example 5, 1 wt % EH6, 3 wt % DEGBE, water, pH 7): 1.09 | Gram Positive Referenced Microbial Activity (staphylococcus aureus; 0.25 % Synthetic Example 5, 1 wt % L24-9, 3 wt % DEGBE, water, pH 7): 0.54 | Gram Positive Referenced Microbial Activity (staphylococcus aureus; 0.25 % Synthetic Example 5, 1 wt % Miranol Ultra, 3 wt % DEGBE, water, pH 7): 0.78 | Gram Positive Referenced Microbial Activity (staphylococcus aureus; 0.25 % Synthetic Example 5, 1 wt % Plantaren 2000, 3 wt % DEGBE, water, pH 7): >2.33 | Gram Positive Referenced Microbial Activity (staphylococcus aureus; 0.25 % Synthetic Example 5, 1 wt % SLS, 3 wt % DEGBE, water, pH 7): 0.20 | Gram Positive Referenced Microbial Activity (staphylococcus aureus; 0.25 % Synthetic Example 5, 1 wt % Tween80, 3 wt % DEGBE, water, pH 7): 0.57 | Gram Positive Referenced Microbial Activity (staphylococcus aureus; 0.25 wt % Synthetic Example 5, 1 wt % EcoSurf EH9, 3 wt % DEGBE, water, pH 7): 2.02 | Gram Positive Referenced Microbial Activity (staphylococcus aureus; 0.5 wt % Synthetic Example 5, 1 wt % EcoSurf EH9, 3 wt % DEGBE, water, pH 7 (concentration series)): >2.87 | Gram Positive Referenced Microbial Activity (staphylococcus aureus; [2]): >1.42 | pH range of formulations in which antimicrobial efficacy is maintained (staphylococcus aureus; formulations of table 16): 3-9 | Concentration down to which antimicrobial efficacy against staphylococcus aureus is maintained (staphylococcus aureus; formulations of table 17): ≥ 0.063 wt % | Gram Positive Referenced Microbial Activity (staphylococcus aureus; pH 3, 0.5 wt % compound, 1 wt % EcoSurf EH9, 3 wt % DEGBE, 95.5 wt % water): >2.58 | Gram Positive Referenced Microbial Activity (staphylococcus aureus; pH 7, 0.5 wt % compound, 1 wt % EcoSurf EH9, 3 wt % DEGBE, 95.5 wt % water (pH series)): >2.8 | Gram Positive Referenced Microbial Activity (staphylococcus aureus; pH 9, 0.5 wt % compound, 1 wt % EcoSurf EH9, 3 wt % DEGBE, 95.5 wt % water): 2.53 | Gram Negative Referenced Microbial Activity (Gram Negative bacteria; 0.25 % Synthetic Example 5, 1 wt % Crodasinic LS30, 3 wt % DEGBE): 0.41 | Gram Negative Referenced Microbial Activity (Gram Negative bacteria; 0.25 % Synthetic Example 5, 1 wt % EH6, 3 wt % DEGBE): >2.58 | Gram Negative Referenced Microbial Activity (Gram Negative bacteria; 0.25 % Synthetic Example 5, 1 wt % L24-9, 3 wt % DEGBE): 1.34 | Gram Negative Referenced Microbial Activity (Gram Negative bacteria; 0.25 % Synthetic Example 5, 1 wt % Miranol Ultra, 3 wt % DEGBE): 1.92 | Gram Negative Referenced Microbial Activity (Gram Negative bacteria; 0.25 % Synthetic Example 5, 1 wt % Plantaren 2000, 3 wt % DEGBE): >2.58 | Gram Negative Referenced Microbial Activity (Gram Negative bacteria; 0.25 % Synthetic Example 5, 1 wt % SLS, 3 wt % DEGBE): 0.08 | Gram Negative Referenced Microbial Activity (Gram Negative bacteria; 0.25 % Synthetic Example 5, 1 wt % Tween80, 3 wt % DEGBE): 1.37 | Stability of the independent solid by 1H NMR [1]: stable for several months

CCCCCCOC(=O)/C=C/c1cc[n+](CCCCCC)cc1.[Br-] [Synthetic Example 6, hexyl 3-(4-hexylpyridinium)acrylate bromide]
Gram Positive Referenced Microbial Activity (staphylococcus aureus; [2]): >1.39 | Stability of the independent solid by 1H NMR [1]: stable for several months

CCCCCCCC[n+]1cccc(/C=C/C(=O)OCCCCCC)c1.[Br-] [Synthetic Example 7, hexyl 3-(3-octylpyridinium)acrylate bromide]
Gram Positive Referenced Microbial Activity (staphylococcus aureus; [2]): >1.42 | Stability of the independent solid by 1H NMR [1]: stable for several months

CCCCCCCC[n+]1ccc(/C=C/C(=O)OCCCCCC)cc1.[Br-] [Synthetic Example 8, hexyl 3-(4-octylpyridinium)acrylate bromide]
Gram Positive Referenced Microbial Activity (staphylococcus aureus; [2]): >1.33 | Stability of the independent solid by 1H NMR [1]: stable for several months
